According to ChEMBL document CHEMBL4002623, “Synthesis and in vitro activity of dicationic indolyl diphenyl ethers as novel potent antibiotic agents against drug-resistant bacteria” (Bioorg Med Chem Lett, 2017):
Values after ≈ are worked out from the molar mass of the structure shown.

Key:
Staphylococcus aureus [1] = assay: Antibacterial activity against methicillin-sensitive Staphylococcus aureus ATCC 29213 by agar dilution method; type: functional
Staphylococcus aureus [2] = assay: Antibacterial activity against methicillin-resistant Staphylococcus aureus 09-13 by agar dilution method; type: functional
[3] = test system: Staphylococcus epidermidis; assay: Antibacterial activity against methicillin-sensitive Staphylococcus epidermidis ATCC 12228 by agar dilution method; type: functional
[4] = test system: Staphylococcus epidermidis; assay: Antibacterial activity against methicillin-resistant Staphylococcus epidermidis 09-3 by agar dilution method; type: functional
Enterococcus faecalis [5] = assay: Antibacterial activity against vancomycin-sensitive Enterococcus faecalis ATCC 29212 by agar dilution method; type: functional
Enterococcus faecalis [6] = assay: Antibacterial activity against vancomycin-resistant Enterococcus faecalis 09-9 by agar dilution method; type: functional
Enterococcus faecium [7] = assay: Antibacterial activity against vancomycin-resistant Enterococcus faecium ATCC 700221 by agar dilution method; type: functional
Escherichia coli [8] = assay: Antibacterial activity against extended-spectrum beta-lactamase-negative Escherichia coli ATCC 25922 by agar dilution method; type: functional
Escherichia coli [9] = assay: Antibacterial activity against extended-spectrum beta-lactamase-positive Escherichia coli 09-1 by agar dilution method; type: functional
Klebsiella pneumoniae [10] = assay: Antibacterial activity against extended-spectrum beta-lactamase-negative Klebsiella pneumoniae 7 by agar dilution method; type: functional
Klebsiella pneumoniae [11] = assay: Antibacterial activity against extended-spectrum beta-lactamase-positive Klebsiella pneumoniae 09-25 by agar dilution method; type: functional
Klebsiella pneumoniae [12] = assay: Antibacterial activity against Klebsiella pneumoniae ATCC BAA-2146 expressing NDM-1 by agar dilution method; type: functional
[13] = Cytotoxicity against HEK293T cells after 48 hrs by MTS assay; type: cell-based, HEK-293T; conditions: human
Enterococcus faecium [14] = assay: Antibacterial activity against vancomycin-sensitive Enterococcus faecium 09-10 by agar dilution method; type: functional
Staphylococcus aureus [15] = assay: Antibacterial activity against methicillin-resistant Staphylococcus aureus ATCC 33591 by agar dilution method; type: functional
Staphylococcus aureus [16] = assay: Antibacterial activity against methicillin-sensitive Staphylococcus aureus 15 by agar dilution method; type: functional
Staphylococcus aureus [17] = assay: Antibacterial activity against methicillin-sensitive Staphylococcus aureus 09-6 by agar dilution method; type: functional
[18] = test system: Staphylococcus epidermidis; assay: Antibacterial activity against methicillin-sensitive Staphylococcus epidermidis 09-9 by agar dilution method; type: functional
Enterococcus faecalis [19] = assay: Antibacterial activity against vancomycin-resistant Enterococcus faecalis ATCC 51299 by agar dilution method; type: functional
Enterococcus faecalis [20] = assay: Antibacterial activity against vancomycin-sensitive Enterococcus faecalis 09-8 by agar dilution method; type: functional
Enterococcus faecium [21] = assay: Antibacterial activity against vancomycin-resistant Enterococcus faecium 05-8 by agar dilution method; type: functional
Escherichia coli [22] = assay: Antibacterial activity against extended-spectrum beta-lactamase-negative Escherichia coli 1515 by agar dilution method; type: functional
Escherichia coli [23] = assay: Antibacterial activity against extended-spectrum beta-lactamase-negative Escherichia coli 09-20 by agar dilution method; type: functional
Klebsiella pneumoniae [24] = assay: Antibacterial activity against extended-spectrum beta-lactamase-positive Klebsiella pneumoniae ATCC 700603 by agar dilution method; type: functional
Klebsiella pneumoniae [25] = assay: Antibacterial activity against extended-spectrum beta-lactamase-negative Klebsiella pneumoniae 09-8 by agar dilution method; type: functional
Pseudomonas aeruginosa [26] = assay: Antibacterial activity against Pseudomonas aeruginosa ATCC 27853 by agar dilution method; type: functional
Pseudomonas aeruginosa [27] = assay: Antibacterial activity against Pseudomonas aeruginosa PAO1 by agar dilution method; type: functional
Pseudomonas aeruginosa [28] = assay: Antibacterial activity against Pseudomonas aeruginosa 09-14 by agar dilution method; type: functional
[29] = test system: Acinetobacter calcoaceticus; assay: Antibacterial activity against Acinetobacter calcoaceticus ATCC 19606 by agar dilution method; type: functional
Enterobacter cloacae = assay: Antibacterial activity against Enterobacter cloacae 45301 by agar dilution method; type: functional
Klebsiella aerogenes = assay: Antibacterial activity against Enterobacter aerogenes 45102 by agar dilution method; type: functional
Serratia marcescens = assay: Antibacterial activity against Serratia marcescens 41002 by agar dilution method; type: functional
Morganella morganii = assay: Antibacterial activity against Morganella morganii ATCC 25830 by agar dilution method; type: functional
Providencia rettgeri = assay: Antibacterial activity against Providencia rettgeri ATCC 31052 by agar dilution method; type: functional
Proteus vulgaris = assay: Antibacterial activity against Proteus vulgaris ATCC 29905 by agar dilution method; type: functional
Proteus mirabilis = assay: Antibacterial activity against Proteus mirabilis 09-1 by agar dilution method; type: functional
Salmonella typhi = assay: Antibacterial activity against Salmonella typhi H901 by agar dilution method; type: functional, Salmonella enterica subsp. enterica serovar Typhi; conditions: Salmonella enterica
Citrobacter freundii = assay: Antibacterial activity against Citrobacter freundii ATCC 43864 by agar dilution method; type: functional

Structure (SMILES)	MIC (Staphylococcus aureus [1])	MIC [3]	MIC (Enterococcus faecalis [5])	MIC (Escherichia coli [8])	MIC (Escherichia coli [9])	MIC (Klebsiella pneumoniae [11])	MIC (Klebsiella pneumoniae [12])	MIC (Enterococcus faecium [14])	MIC [18]	MIC (Enterococcus faecalis [20])	MIC (Klebsiella pneumoniae [25])	MIC [29]	MIC (Enterobacter cloacae)	MIC (Klebsiella aerogenes)	MIC (Serratia marcescens)	MIC (Morganella morganii)	MIC (Providencia rettgeri)	MIC (Proteus vulgaris)	MIC (Proteus mirabilis)	MIC (Citrobacter freundii)	further results
CCCNC(=N)c1ccc2cc(-c3ccc(Oc4ccc(-c5cc6ccc(C(=N)NCCC)cc6[nH]5)cc4)cc3)[nH]c2c1	16 µg/mL (≈ 28.1 µM)	8 µg/mL (≈ 14.1 µM)	16 µg/mL (≈ 28.1 µM)	> 128 µg/mL	> 128 µg/mL	> 128 µg/mL	> 128 µg/mL	16 µg/mL (≈ 28.1 µM)	8 µg/mL (≈ 14.1 µM)	16 µg/mL (≈ 28.1 µM)	128 µg/mL (≈ 225 µM)	> 128 µg/mL	> 128 µg/mL	> 128 µg/mL	> 128 µg/mL	128 µg/mL (≈ 225 µM)	> 128 µg/mL	> 128 µg/mL	> 128 µg/mL	> 128 µg/mL	MIC (Staphylococcus aureus [2]): 16 µg/mL (≈ 28.1 µM); MIC [4]: 2 µg/mL (≈ 3.52 µM); MIC (Enterococcus faecalis [6]): 16 µg/mL (≈ 28.1 µM); MIC (Enterococcus faecium [7]): 2 to 16 µg/mL (≈ 3.52 to 28.1 µM); MIC (Klebsiella pneumoniae [10]): > 128 µg/mL; CC50 at 48 h [13]: 26.2 µg/mL (≈ 46.1 µM); MIC (Staphylococcus aureus [15]): 16 µg/mL (≈ 28.1 µM); MIC (Staphylococcus aureus [16]): 8 µg/mL (≈ 14.1 µM); MIC (Staphylococcus aureus [17]): 16 µg/mL (≈ 28.1 µM); MIC (Enterococcus faecalis [19]): 16 µg/mL (≈ 28.1 µM); MIC (Enterococcus faecium [21]): 16 µg/mL (≈ 28.1 µM); MIC (Escherichia coli [22]): > 128 µg/mL; MIC (Escherichia coli [23]): 128 µg/mL (≈ 225 µM); MIC (Klebsiella pneumoniae [24]): > 128 µg/mL; MIC (Pseudomonas aeruginosa [26]): > 128 µg/mL; MIC (Pseudomonas aeruginosa [27]): > 128 µg/mL; MIC (Pseudomonas aeruginosa [28]): > 128 µg/mL; MIC (Salmonella typhi): 128 µg/mL (≈ 225 µM)
CCC(CC)NC(=N)c1ccc2cc(-c3ccc(Oc4ccc(-c5cc6ccc(C(=N)NC(CC)CC)cc6[nH]5)cc4)cc3)[nH]c2c1	2 µg/mL (≈ 3.2 µM)	0.5 µg/mL (≈ 0.8 µM)	4 µg/mL (≈ 6.4 µM)	16 µg/mL (≈ 25.6 µM)	16 µg/mL (≈ 25.6 µM)	16 µg/mL (≈ 25.6 µM)	16 µg/mL (≈ 25.6 µM)	4 µg/mL (≈ 6.4 µM)	2 µg/mL (≈ 3.2 µM)	2 µg/mL (≈ 3.2 µM)	16 µg/mL (≈ 25.6 µM)	16 µg/mL (≈ 25.6 µM)	16 µg/mL (≈ 25.6 µM)	16 µg/mL (≈ 25.6 µM)	16 µg/mL (≈ 25.6 µM)	8 µg/mL (≈ 12.8 µM)	16 µg/mL (≈ 25.6 µM)	16 µg/mL (≈ 25.6 µM)	32 µg/mL (≈ 51.2 µM)	16 µg/mL (≈ 25.6 µM)	MIC (Staphylococcus aureus [2]): 2 µg/mL (≈ 3.2 µM); MIC [4]: 1 µg/mL (≈ 1.6 µM); MIC (Enterococcus faecalis [6]): 8 µg/mL (≈ 12.8 µM); MIC (Enterococcus faecium [7]): 2 µg/mL (≈ 3.2 µM); MIC (Klebsiella pneumoniae [10]): 16 µg/mL (≈ 25.6 µM); CC50 at 48 h [13]: 25.4 µg/mL (≈ 40.7 µM); MIC (Staphylococcus aureus [15]): 2 µg/mL (≈ 3.2 µM); MIC (Staphylococcus aureus [16]): 2 µg/mL (≈ 3.2 µM); MIC (Staphylococcus aureus [17]): 2 µg/mL (≈ 3.2 µM); MIC (Enterococcus faecalis [19]): 4 µg/mL (≈ 6.4 µM); MIC (Enterococcus faecium [21]): 4 µg/mL (≈ 6.4 µM); MIC (Escherichia coli [22]): 32 µg/mL (≈ 51.2 µM); MIC (Escherichia coli [23]): 16 µg/mL (≈ 25.6 µM); MIC (Klebsiella pneumoniae [24]): 16 µg/mL (≈ 25.6 µM); MIC (Pseudomonas aeruginosa [26]): 16 µg/mL (≈ 25.6 µM); MIC (Pseudomonas aeruginosa [27]): 32 µg/mL (≈ 51.2 µM); MIC (Pseudomonas aeruginosa [28]): 32 µg/mL (≈ 51.2 µM); MIC (Salmonella typhi): 16 µg/mL (≈ 25.6 µM)
C[C@H]1COc2c(N3CCN(C)CC3)c(F)cc3c(=O)c(C(=O)O)cn1c23.C[C@H]1COc2c(N3CCN(C)CC3)c(F)cc3c(=O)c(C(=O)O)cn1c23.O [LEVOFLOXACIN]	0.125 µg/mL	0.25 µg/mL	0.5 µg/mL	0.03 to 0.06 µg/mL	16 µg/mL	4 µg/mL	> 128 µg/mL	64 µg/mL	8 µg/mL	1 µg/mL	≤ 0.03 µg/mL	0.25 µg/mL	0.06 µg/mL	0.06 µg/mL	0.25 µg/mL	≤ 0.03 µg/mL	≤ 0.03 µg/mL	≤ 0.03 µg/mL	2 µg/mL	≤ 0.03 µg/mL	MIC (Staphylococcus aureus [2]): 32 µg/mL; MIC [4]: 8 µg/mL; MIC (Enterococcus faecalis [6]): 128 µg/mL; MIC (Enterococcus faecium [7]): 64 µg/mL; MIC (Staphylococcus aureus [15]): 0.125 µg/mL; MIC (Staphylococcus aureus [16]): 0.125 µg/mL; MIC (Staphylococcus aureus [17]): 0.25 µg/mL; MIC (Enterococcus faecalis [19]): 0.5 µg/mL; MIC (Enterococcus faecium [21]): 64 µg/mL; MIC (Salmonella typhi): ≤ 0.03 µg/mL
c1cc(-c2cc3ccc(C4=NCCCN4)cc3[nH]2)ccc1Oc1ccc(-c2cc3ccc(C4=NCCCN4)cc3[nH]2)cc1		0.25 µg/mL (≈ 0.443 µM)	4 µg/mL (≈ 7.08 µM)	64 µg/mL (≈ 113 µM)	64 µg/mL (≈ 113 µM)	≥ 128 µg/mL	128 µg/mL (≈ 227 µM)	16 µg/mL (≈ 28.3 µM)	1 µg/mL (≈ 1.77 µM)	2 µg/mL (≈ 3.54 µM)	128 µg/mL (≈ 227 µM)	> 128 µg/mL	64 µg/mL (≈ 113 µM)	128 µg/mL (≈ 227 µM)	128 µg/mL (≈ 227 µM)	32 µg/mL (≈ 56.7 µM)	128 µg/mL (≈ 227 µM)	128 µg/mL (≈ 227 µM)	> 128 µg/mL	128 µg/mL (≈ 227 µM)	MIC (Klebsiella pneumoniae [10]): ≥ 128 µg/mL; CC50 at 48 h [13]: 43.1 µg/mL (≈ 76.3 µM); MIC (Escherichia coli [22]): 64 µg/mL (≈ 113 µM); MIC (Escherichia coli [23]): 128 µg/mL (≈ 227 µM); MIC (Klebsiella pneumoniae [24]): > 128 µg/mL; MIC (Pseudomonas aeruginosa [26]): > 128 µg/mL; MIC (Pseudomonas aeruginosa [27]): > 128 µg/mL; MIC (Pseudomonas aeruginosa [28]): > 128 µg/mL
